Reference: paper PMC5421785, “Citrullination only infrequently impacts peptide binding to HLA class II MHC” (PLoS ONE, 2017)
Where two headings read alike, the source gives them in different places. Square brackets hold non-standard residues; d marks the D form. Peptide text beside a SMILES is read from it. Cit = NC(=O)NCCC[C@H](N)C(=O)O

Tests used:
HLA-DRB1*01:01 = target: T1, HLA-DRB1*01:01 (Homo sapiens, UniProt P01903+P01911, A100R/D57E/F55L/F60I/F76Y/I96L/L162R/M171V/P40L/Q125E/R42F/V115G/Y59C); test: HLA class II peptide binding, inhibition of radiolabeled peptide binding to purified MHC
T1 construct: EBV transformed homozygous cell lines were used as sources of MHC molecules; endogenous in cells; host or cells: EBV transformed homozygous cell lines

HLA-DRB1*04:01 = target: T2, HLA-DRB1*04:01 (Homo sapiens, UniProt P01903+P01911, A100K/A169T/F76Y/I96L/K127E/L162R/M171V/N62H/P40V/Q125Y/R42H/S133A/S149N/S66Y/V115G/V209L/W38E); test: as above
T2 construct: EBV transformed homozygous cell lines were used as sources of MHC molecules; endogenous in cells; host or cells: EBV transformed homozygous cell lines

[1] = citrullinated 15-mer (X), purified MHC, inhibition of radiolabeled peptide binding, dash = IC50 >40,000 nM, read-out: DRB1*01:01 binding capacity, Cit peptide (IC50 nM)
[2] = citrullinated 15-mer (X), purified MHC, inhibition of radiolabeled peptide binding, dash = IC50 >40,000 nM, read-out: DRB1*04:01 binding capacity, Cit peptide (IC50 nM)
[3] = citrullinated 15-mer peptide (X = citrulline), purified HLA-DRB1*01:01, read-out: DRB1*01:01 binding capacity, Cit peptide (IC50 nM)
[4] = citrullinated 15-mer peptide (X = citrulline), purified HLA-DRB1*04:01, read-out: DRB1*04:01 binding capacity, Cit peptide (IC50 nM)

| IC50 (HLA-DRB1*01:01; [1]) [nM] | IC50 (HLA-DRB1*04:01; [2]) [nM] | IC50 (HLA-DRB1*01:01; [3]) [nM] | IC50 (HLA-DRB1*04:01; [4]) [nM] | Structure (SMILES) | also measured |
| --- | --- | --- | --- | --- | --- |
|  |  | 34200 | 39500 | CC(C)C[C@H](NC(=O)[C@H](C)NC(=O)[C@H](CC(=O)O)NC(=O)[C@@H](N)CC(N)=O)C(=O)N[C@@H](CCCNC(=N)N)C(=O)N[C@@H](CCC(N)=O)C(=O)N[C@@H](C)C(=O)N[C@@H](CCCCN)C(=O)N[C@@H](CCC(N)=O)C(=O)N[C@@H](CCC(=O)O)C(=O)N[C@@H](CO)C(=O)N[C@H](C(=O)N[C@@H](CCC(=O)O)C(=O)N[C@@H](Cc1ccc(O)cc1)C(=O)N[C@@H](CCCNC(N)=O)C(=O)O)[C@@H](C)O [NDALRQAKQESTEYX] (H-NDALRQAKQESTEY[Cit]-OH) |  |
|  |  | 22600 | > 40000 | CC(C)C[C@H](NC(=O)[C@H](C)NC(=O)[C@H](CC(=O)O)NC(=O)[C@@H](N)CC(N)=O)C(=O)N[C@@H](CCCNC(N)=O)C(=O)N[C@@H](CCC(N)=O)C(=O)N[C@@H](C)C(=O)N[C@@H](CCCCN)C(=O)N[C@@H](CCC(N)=O)C(=O)N[C@@H](CCC(=O)O)C(=O)N[C@@H](CO)C(=O)N[C@H](C(=O)N[C@@H](CCC(=O)O)C(=O)N[C@@H](Cc1ccc(O)cc1)C(=O)N[C@@H](CCCNC(=N)N)C(=O)O)[C@@H](C)O [NDALXQAKQESTEYR] (H-NDAL[Cit]QAKQESTEYR-OH) |  |
| 229 | 5660 |  |  | CC[C@H](C)[C@H](NC(=O)[C@H](Cc1ccc(O)cc1)NC(=O)[C@H](CC(N)=O)NC(=O)[C@H](C)NC(=O)[C@H](Cc1ccccc1)NC(=O)[C@H](CCCNC(=N)N)NC(=O)[C@H](CC(=O)O)NC(=O)[C@@H](N)CC(N)=O)C(=O)N[C@@H](CC(=O)O)C(=O)N[C@@H](CCCCN)C(=O)N[C@H](C(=O)N[C@@H](CCCNC(N)=O)C(=O)N[C@@H](Cc1ccccc1)C(=O)N[C@@H](CC(C)C)C(=O)N[C@@H](CCC(=O)O)C(=O)O)C(C)C [NDRFANYIDKVXFLE] (H-NDRFANYIDKV[Cit]FLE-OH) |  |
| 816 | 10900 |  |  | CC[C@H](C)[C@H](NC(=O)[C@H](Cc1ccc(O)cc1)NC(=O)[C@H](CC(N)=O)NC(=O)[C@H](C)NC(=O)[C@H](Cc1ccccc1)NC(=O)[C@H](CCCNC(N)=O)NC(=O)[C@H](CC(=O)O)NC(=O)[C@@H](N)CC(N)=O)C(=O)N[C@@H](CC(=O)O)C(=O)N[C@@H](CCCCN)C(=O)N[C@H](C(=O)N[C@@H](CCCNC(=N)N)C(=O)N[C@@H](Cc1ccccc1)C(=O)N[C@@H](CC(C)C)C(=O)N[C@@H](CCC(=O)O)C(=O)O)C(C)C [NDXFANYIDKVRFLE] (H-ND[Cit]FANYIDKVRFLE-OH) |  |
| 2000 | 702 |  |  | CC(C)C[C@H](NC(=O)[C@H](CO)NC(=O)[C@H](C)NC(=O)[C@H](CC(N)=O)NC(=O)[C@H](CC(=O)O)NC(=O)[C@@H](NC(=O)[C@H](CC(=O)O)NC(=O)[C@H](CCC(N)=O)NC(=O)[C@H](CCCNC(N)=O)NC(=O)[C@H](Cc1ccccc1)NC(=O)[C@H](CO)NC(=O)[C@H](CCC(N)=O)NC(=O)[C@H](CC(C)C)NC(=O)[C@@H](NC(=O)[C@@H](N)CC(N)=O)[C@@H](C)O)C(C)C)C(=O)O [NTLQSFXQDVDNASL] (H-NTLQSF[Cit]QDVDNASL-OH) |  |
| 102 | 1210 |  |  | CC[C@H](C)[C@H](NC(=O)[C@H](CCCCN)NC(=O)[C@H](CC(N)=O)NC(=O)[C@H](CCC(N)=O)NC(=O)[C@H](CCC(N)=O)NC(=O)[C@H](CCC(=O)O)NC(=O)[C@H](CC(C)C)NC(=O)[C@H](Cc1ccccc1)NC(=O)[C@H](CCCNC(N)=O)NC(=O)[C@@H](NC(=O)[C@H](CCCCN)NC(=O)[C@H](CC(=O)O)NC(=O)[C@@H](NC(=O)[C@H](Cc1ccc(O)cc1)NC(=O)[C@@H](N)CC(N)=O)[C@@H](C)CC)C(C)C)C(=O)O [NYIDKVXFLEQQNKI] (H-NYIDKV[Cit]FLEQQNKI-OH) |  |

More lines, now with the values behind:

| Structure (SMILES) | IC50 (HLA-DRB1*01:01; [1]) [nM] | IC50 (HLA-DRB1*04:01; [2]) [nM] | IC50 (HLA-DRB1*01:01; [3]) [nM] | IC50 (HLA-DRB1*04:01; [4]) [nM] | also measured |
| --- | --- | --- | --- | --- | --- |
| CSCC[C@H](NC(=O)[C@H](CCCNC(=N)N)NC(=O)[C@H](CCCNC(=N)N)NC(=O)[C@H](Cc1ccc(O)cc1)NC(=O)[C@H](CO)NC(=O)[C@H](CO)NC(=O)[C@H](CO)NC(=O)[C@H](CO)NC(=O)[C@@H](NC(=O)[C@H](CO)NC(=O)[C@H](CCCNC(N)=O)NC(=O)[C@@H](NC(=O)[C@H](CO)NC(=O)[C@@H](N)CCSC)[C@@H](C)O)C(C)C)C(=O)N[C@@H](Cc1ccccc1)C(=O)O [MSTXSVSSSSYRRMF] (H-MST[Cit]SVSSSSYRRMF-OH) | 573 | 1080 |  |  |  |
| CC(C)C[C@H](NC(=O)[C@H](CC(N)=O)NC(=O)[C@H](CC(=O)O)NC(=O)[C@H](CCCNC(N)=O)NC(=O)[C@H](CCC(=O)O)NC(=O)[C@@H](NC(=O)[C@H](CCC(=O)O)NC(=O)[C@@H](NC(=O)[C@H](CCCNC(=N)N)NC(=O)[C@H](C)NC(=O)[C@H](CCCCN)NC(=O)[C@H](CC(=O)O)NC(=O)[C@@H](N)CC(N)=O)C(C)C)C(C)C)C(=O)N[C@@H](C)C(=O)N[C@@H](CCC(=O)O)C(=O)O [NDKARVEVEXDNLAE] (H-NDKARVEVE[Cit]DNLAE-OH) | 578 | 1410 |  |  |  |
| CC(C)C[C@H](NC(=O)[C@H](CC(N)=O)NC(=O)[C@H](CC(=O)O)NC(=O)[C@H](CCCNC(=N)N)NC(=O)[C@H](CCC(=O)O)NC(=O)[C@@H](NC(=O)[C@H](CCC(=O)O)NC(=O)[C@@H](NC(=O)[C@H](CCCNC(N)=O)NC(=O)[C@H](C)NC(=O)[C@H](CCCCN)NC(=O)[C@H](CC(=O)O)NC(=O)[C@@H](N)CC(N)=O)C(C)C)C(C)C)C(=O)N[C@@H](C)C(=O)N[C@@H](CCC(=O)O)C(=O)O [NDKAXVEVERDNLAE] (H-NDKA[Cit]VEVERDNLAE-OH) | 1070 | 905 |  |  |  |
| CSCC[C@H](NC(=O)[C@H](CCC(=O)O)NC(=O)[C@H](CCC(=O)O)NC(=O)[C@H](CCCCN)NC(=O)[C@H](CCSC)NC(=O)[C@@H](N)CC(N)=O)C(=O)N[C@@H](C)C(=O)N[C@@H](CCCNC(=N)N)C(=O)N[C@@H](Cc1c[nH]cn1)C(=O)N[C@@H](CC(C)C)C(=O)N[C@@H](CCCNC(N)=O)C(=O)N[C@@H](CCC(=O)O)C(=O)N[C@@H](Cc1ccc(O)cc1)C(=O)N[C@@H](CCC(N)=O)C(=O)N[C@@H](CC(=O)O)C(=O)O [NMKEEMARHLXEYQD] |  |  | 5060 | > 40000 |  |
| CSCC[C@H](NC(=O)[C@H](CCC(=O)O)NC(=O)[C@H](CCC(=O)O)NC(=O)[C@H](CCCCN)NC(=O)[C@H](CCSC)NC(=O)[C@@H](N)CC(N)=O)C(=O)N[C@@H](C)C(=O)N[C@@H](CCCNC(N)=O)C(=O)N[C@@H](Cc1c[nH]cn1)C(=O)N[C@@H](CC(C)C)C(=O)N[C@@H](CCCNC(=N)N)C(=O)N[C@@H](CCC(=O)O)C(=O)N[C@@H](Cc1ccc(O)cc1)C(=O)N[C@@H](CCC(N)=O)C(=O)N[C@@H](CC(=O)O)C(=O)O [NMKEEMAXHLREYQD] |  |  | 5190 | > 40000 |  |
| CC(C)C[C@H](NC(=O)[C@H](C)NC(=O)[C@@H](NC(=O)[C@H](Cc1ccc(O)cc1)NC(=O)[C@@H](NC(=O)[C@H](Cc1ccccc1)NC(=O)[C@H](CCCNC(N)=O)NC(=O)[C@H](CO)NC(=O)[C@@H](N)CC(N)=O)[C@@H](C)O)[C@@H](C)O)C(=O)N[C@@H](CCCCN)C(=O)N[C@@H](CC(=O)O)C(=O)NCC(=O)N[C@@H](CS)C(=O)N[C@H](C(=O)N[C@@H](CCCCN)C(=O)O)[C@@H](C)O [NSXFTYTALKDGCTK] (H-NS[Cit]FTYTALKDGCTK-OH) |  |  |  |  | IC50 (HLA-DRB1*01:01; citrullinated peptide as listed (X at Cit position), read-out: DRB1*01:01 binding capacity Cit peptide (IC50 nM)): 44 nM; IC50 (HLA-DRB1*01:01; value of the wild-type (non-citrullinated) counterpart of the listed peptide, read-out: DRB1*01:01 binding capacity WT peptide (IC50 nM)): 15 nM; IC50 (HLA-DRB1*04:01; citrullinated peptide as listed (X at Cit position), read-out: DRB1*04:01 binding capacity Cit peptide (IC50 nM)): 12400 nM; IC50 (HLA-DRB1*04:01; value of the wild-type (non-citrullinated) counterpart of the listed peptide, read-out: DRB1*04:01 binding capacity WT peptide (IC50 nM)): 4170 nM |
